Assay results taken from article PMC4730229, “Benzobisthiazoles Represent a Novel Scaffold for Kinase Inhibitors of CLK Family Members” (Biochemistry, 2015).

How the values were obtained:
Assay in all cases: Kinase profiling (radioactive filter binding)
Format in all cases: biochemical
Details in all cases: 1 uM compound
ASK1 = ASK1 (Homo sapiens, UniProt Q99683)
Experimental: (§1) 3A5 and 5E4 were sent to the International Centre for Kinase Profiling at the MRC Protein Phosphorylation and Ubiquitylation Unit for profiling (as described in ref ([17])). Compounds were profiled against 140 kinases using a radioactive ([^33P]ATP) filter binding assay at a concentration of 1 μM. Results were obtained as inhibition of kinase activity and are listed in Supplementary Table 2.

Aurora B = Aurora B (Homo sapiens, UniProt Q96GD4)
Experimental: as §1

BRSK1 = BRSK1 (Homo sapiens, UniProt Q8TDC3)
Experimental: as §1

BRSK2 = BRSK2 (Homo sapiens, UniProt Q8IWQ3)
Experimental: as §1

CDK9-Cyclin T1 = CDK9-Cyclin T1 (Homo sapiens, UniProt P50750)
Experimental: as §1

CHK1 = CHK1 (Homo sapiens, UniProt O14757)
Experimental: as §1

CSK = CSK (Homo sapiens, UniProt P41240)
Experimental: as §1

EPH-B3 = EPH-B3 (Homo sapiens, UniProt P54753)
Experimental: as §1

EPH-B4 = EPH-B4 (Homo sapiens, UniProt P54760)
Experimental: as §1

ERK1 = ERK1 (Homo sapiens, UniProt P27361)
Experimental: as §1

FGF-R1 = FGF-R1 (Homo sapiens, UniProt P11362)
Experimental: as §1

GCK = GCK (Homo sapiens, UniProt Q12851)
Experimental: as §1

HIPK2 = HIPK2 (Homo sapiens, UniProt Q9H2X6)
Experimental: as §1

HIPK3 = HIPK3 (Homo sapiens, UniProt Q9H422)
Experimental: as §1

IRAK1 = IRAK1 (Homo sapiens, UniProt P51617)
Experimental: as §1

JNK1 = JNK1 (Homo sapiens, UniProt P45983)
Experimental: as §1

MAP4K5 = MAP4K5 (Homo sapiens, UniProt Q9Y4K4)
Experimental: as §1

MAPKAP-K2 = MAPKAP-K2 (Homo sapiens, UniProt P49137)
Experimental: as §1

MINK1 = MINK1 (Homo sapiens, UniProt Q8N4C8)
Experimental: as §1

MKK2 = MKK2 (Homo sapiens, UniProt P36507)
Experimental: as §1

MLK3 = MLK3 (Homo sapiens, UniProt Q16584)
Experimental: as §1

MST2 = MST2 (Homo sapiens, UniProt Q13188)
Experimental: as §1

MST3 = MST3 (Homo sapiens, UniProt Q9Y6E0)
Experimental: as §1

MST4 = MST4 (Homo sapiens, UniProt Q9P289)
Experimental: as §1

NEK6 = NEK6 (Homo sapiens, UniProt Q9HC98)
Experimental: as §1

OSR1 = OSR1 (Homo sapiens, UniProt O95747)
Experimental: as §1

PAK2 = PAK2 (Homo sapiens, UniProt Q13177)
Experimental: as §1

PDK1 = PDK1 (Homo sapiens, UniProt O15530)
Experimental: as §1

PIM1 = PIM1 (Homo sapiens, UniProt P11309)
Experimental: as §1

PIM3 = PIM3 (Homo sapiens, UniProt Q86V86)
Experimental: as §1

PKA = PKA (Homo sapiens, UniProt P17612)
Experimental: as §1

PKBa = PKBa (Homo sapiens, UniProt P31749)
Experimental: as §1

PKBb = PKBb (Homo sapiens, UniProt P31751)
Experimental: as §1

RIPK2 = RIPK2 (Homo sapiens, UniProt O43353)
Experimental: as §1

RSK2 = RSK2 (Homo sapiens, UniProt P51812)
Experimental: as §1

TAK1 = TAK1 (Homo sapiens, UniProt O43318)
Experimental: as §1

TESK1 = TESK1 (Homo sapiens, UniProt Q15569)
Experimental: as §1

TIE2 = TIE2 (Homo sapiens, UniProt Q02763)
Experimental: as §1

TLK1 = TLK1 (Homo sapiens, UniProt Q9UKI8)
Experimental: as §1

ULK2 = ULK2 (Homo sapiens, UniProt Q8IYT8)
Experimental: as §1

WNK1 = WNK1 (Homo sapiens, UniProt Q9H4A3)
Experimental: as §1

ZAP70 = ZAP70 (Homo sapiens, UniProt P43403)
Experimental: as §1

p38g MAPK = p38g MAPK (Homo sapiens, UniProt P53778)
Experimental: as §1

MINK1, sequence (Q8N4C8 whole entry): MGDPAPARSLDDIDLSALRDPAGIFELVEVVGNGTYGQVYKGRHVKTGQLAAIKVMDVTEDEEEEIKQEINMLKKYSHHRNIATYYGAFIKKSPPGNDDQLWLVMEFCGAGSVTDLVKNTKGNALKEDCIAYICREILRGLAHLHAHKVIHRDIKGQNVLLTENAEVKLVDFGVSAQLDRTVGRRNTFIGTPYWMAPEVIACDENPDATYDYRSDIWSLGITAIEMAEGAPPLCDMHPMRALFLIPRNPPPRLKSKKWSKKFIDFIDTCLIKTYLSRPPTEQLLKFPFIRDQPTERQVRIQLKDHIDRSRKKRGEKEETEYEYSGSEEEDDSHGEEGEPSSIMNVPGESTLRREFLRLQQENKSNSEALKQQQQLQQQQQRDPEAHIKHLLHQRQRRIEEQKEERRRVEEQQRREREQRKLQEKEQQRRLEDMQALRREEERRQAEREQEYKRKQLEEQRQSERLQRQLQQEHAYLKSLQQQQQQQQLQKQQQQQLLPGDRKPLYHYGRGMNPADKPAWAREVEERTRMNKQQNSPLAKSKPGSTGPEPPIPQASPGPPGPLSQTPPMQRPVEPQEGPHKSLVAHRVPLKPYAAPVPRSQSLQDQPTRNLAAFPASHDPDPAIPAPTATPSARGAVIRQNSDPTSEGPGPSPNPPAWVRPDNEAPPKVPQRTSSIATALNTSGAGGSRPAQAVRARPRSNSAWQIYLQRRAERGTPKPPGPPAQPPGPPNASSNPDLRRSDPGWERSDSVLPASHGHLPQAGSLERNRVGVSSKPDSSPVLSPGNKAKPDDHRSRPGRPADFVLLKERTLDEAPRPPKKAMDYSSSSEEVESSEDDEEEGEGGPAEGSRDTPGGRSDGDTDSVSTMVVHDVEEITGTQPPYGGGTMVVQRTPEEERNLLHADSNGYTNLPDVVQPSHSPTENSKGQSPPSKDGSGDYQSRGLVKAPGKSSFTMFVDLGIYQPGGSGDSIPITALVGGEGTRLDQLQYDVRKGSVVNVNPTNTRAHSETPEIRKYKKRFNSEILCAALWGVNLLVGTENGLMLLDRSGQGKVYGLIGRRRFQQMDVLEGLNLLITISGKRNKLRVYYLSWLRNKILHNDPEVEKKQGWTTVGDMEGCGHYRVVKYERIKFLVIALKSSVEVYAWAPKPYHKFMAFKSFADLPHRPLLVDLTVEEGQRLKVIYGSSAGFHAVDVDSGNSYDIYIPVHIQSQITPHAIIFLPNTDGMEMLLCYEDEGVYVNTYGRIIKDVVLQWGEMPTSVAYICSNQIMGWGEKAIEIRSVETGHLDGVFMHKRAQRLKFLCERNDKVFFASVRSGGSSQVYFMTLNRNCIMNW
OSR1, sequence (O95747 whole entry): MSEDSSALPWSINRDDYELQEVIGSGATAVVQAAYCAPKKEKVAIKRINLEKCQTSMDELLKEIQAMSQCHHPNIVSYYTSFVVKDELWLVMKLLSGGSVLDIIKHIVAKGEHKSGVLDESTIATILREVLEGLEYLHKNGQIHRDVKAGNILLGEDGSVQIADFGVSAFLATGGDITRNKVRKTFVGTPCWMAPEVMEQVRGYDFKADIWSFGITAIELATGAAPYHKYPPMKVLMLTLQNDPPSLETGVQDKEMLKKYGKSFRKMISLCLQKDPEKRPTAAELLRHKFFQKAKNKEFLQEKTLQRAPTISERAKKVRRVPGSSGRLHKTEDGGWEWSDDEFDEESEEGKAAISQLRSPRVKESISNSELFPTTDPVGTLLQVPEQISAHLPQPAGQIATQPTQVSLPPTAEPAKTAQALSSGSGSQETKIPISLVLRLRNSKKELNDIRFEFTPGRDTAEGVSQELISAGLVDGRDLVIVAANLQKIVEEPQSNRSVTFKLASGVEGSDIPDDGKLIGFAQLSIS
MAPKAP-K2, sequence (P49137 whole entry): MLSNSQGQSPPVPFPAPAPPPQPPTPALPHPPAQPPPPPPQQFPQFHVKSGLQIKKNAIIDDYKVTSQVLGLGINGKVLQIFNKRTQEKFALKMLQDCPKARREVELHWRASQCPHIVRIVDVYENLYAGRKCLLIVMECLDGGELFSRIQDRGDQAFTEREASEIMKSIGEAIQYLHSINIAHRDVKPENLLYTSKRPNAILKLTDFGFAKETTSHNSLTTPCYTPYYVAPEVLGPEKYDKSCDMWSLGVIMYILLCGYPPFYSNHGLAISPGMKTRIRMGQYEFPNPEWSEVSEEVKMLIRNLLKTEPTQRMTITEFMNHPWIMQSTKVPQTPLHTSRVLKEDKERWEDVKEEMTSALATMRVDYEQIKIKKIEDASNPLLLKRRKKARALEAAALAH
Aurora B, sequence (Q96GD4 whole entry): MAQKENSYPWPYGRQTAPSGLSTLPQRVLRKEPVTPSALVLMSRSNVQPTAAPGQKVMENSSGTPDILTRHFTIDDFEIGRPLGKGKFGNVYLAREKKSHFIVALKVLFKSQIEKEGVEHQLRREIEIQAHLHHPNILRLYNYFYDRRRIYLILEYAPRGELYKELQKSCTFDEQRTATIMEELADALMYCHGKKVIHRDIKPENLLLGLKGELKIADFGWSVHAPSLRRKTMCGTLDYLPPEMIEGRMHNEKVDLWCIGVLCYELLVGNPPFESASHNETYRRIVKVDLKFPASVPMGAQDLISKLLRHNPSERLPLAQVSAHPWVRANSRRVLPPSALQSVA
ZAP70, sequence (P43403 whole entry): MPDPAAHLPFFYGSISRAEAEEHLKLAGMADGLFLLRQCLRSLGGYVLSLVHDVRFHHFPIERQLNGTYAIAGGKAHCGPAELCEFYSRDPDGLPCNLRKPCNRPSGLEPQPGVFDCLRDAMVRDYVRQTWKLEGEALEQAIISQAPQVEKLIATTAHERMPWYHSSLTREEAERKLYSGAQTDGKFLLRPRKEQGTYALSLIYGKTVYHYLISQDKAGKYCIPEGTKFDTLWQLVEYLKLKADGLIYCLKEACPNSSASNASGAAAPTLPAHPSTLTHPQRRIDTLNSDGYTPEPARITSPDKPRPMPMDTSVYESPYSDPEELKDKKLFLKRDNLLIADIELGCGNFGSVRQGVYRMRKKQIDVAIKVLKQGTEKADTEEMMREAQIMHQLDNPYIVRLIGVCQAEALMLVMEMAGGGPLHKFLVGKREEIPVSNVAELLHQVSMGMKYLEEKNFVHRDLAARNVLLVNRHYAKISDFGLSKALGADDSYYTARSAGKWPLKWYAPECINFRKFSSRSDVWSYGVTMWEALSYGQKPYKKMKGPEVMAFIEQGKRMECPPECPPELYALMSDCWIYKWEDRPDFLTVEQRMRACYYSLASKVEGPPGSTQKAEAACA
RSK2, sequence (P51812 whole entry): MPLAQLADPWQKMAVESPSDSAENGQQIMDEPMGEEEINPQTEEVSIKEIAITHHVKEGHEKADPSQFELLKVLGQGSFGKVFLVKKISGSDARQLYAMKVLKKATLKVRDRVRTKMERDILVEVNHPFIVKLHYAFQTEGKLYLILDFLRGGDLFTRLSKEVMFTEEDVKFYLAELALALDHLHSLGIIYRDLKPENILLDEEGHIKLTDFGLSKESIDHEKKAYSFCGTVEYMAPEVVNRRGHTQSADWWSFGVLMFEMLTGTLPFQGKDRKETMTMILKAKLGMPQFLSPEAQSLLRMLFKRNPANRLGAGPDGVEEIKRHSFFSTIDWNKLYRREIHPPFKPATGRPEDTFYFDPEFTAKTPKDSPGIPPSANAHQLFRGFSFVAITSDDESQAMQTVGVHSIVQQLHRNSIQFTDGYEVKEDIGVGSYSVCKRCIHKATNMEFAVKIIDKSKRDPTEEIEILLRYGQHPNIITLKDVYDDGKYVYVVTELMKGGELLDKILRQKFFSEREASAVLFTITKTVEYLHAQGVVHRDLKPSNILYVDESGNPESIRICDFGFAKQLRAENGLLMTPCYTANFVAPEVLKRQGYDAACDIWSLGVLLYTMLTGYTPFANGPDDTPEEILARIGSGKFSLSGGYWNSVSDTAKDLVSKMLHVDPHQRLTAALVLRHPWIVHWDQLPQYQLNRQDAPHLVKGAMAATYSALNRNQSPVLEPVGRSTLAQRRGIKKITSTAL
IRAK1, sequence (P51617 whole entry): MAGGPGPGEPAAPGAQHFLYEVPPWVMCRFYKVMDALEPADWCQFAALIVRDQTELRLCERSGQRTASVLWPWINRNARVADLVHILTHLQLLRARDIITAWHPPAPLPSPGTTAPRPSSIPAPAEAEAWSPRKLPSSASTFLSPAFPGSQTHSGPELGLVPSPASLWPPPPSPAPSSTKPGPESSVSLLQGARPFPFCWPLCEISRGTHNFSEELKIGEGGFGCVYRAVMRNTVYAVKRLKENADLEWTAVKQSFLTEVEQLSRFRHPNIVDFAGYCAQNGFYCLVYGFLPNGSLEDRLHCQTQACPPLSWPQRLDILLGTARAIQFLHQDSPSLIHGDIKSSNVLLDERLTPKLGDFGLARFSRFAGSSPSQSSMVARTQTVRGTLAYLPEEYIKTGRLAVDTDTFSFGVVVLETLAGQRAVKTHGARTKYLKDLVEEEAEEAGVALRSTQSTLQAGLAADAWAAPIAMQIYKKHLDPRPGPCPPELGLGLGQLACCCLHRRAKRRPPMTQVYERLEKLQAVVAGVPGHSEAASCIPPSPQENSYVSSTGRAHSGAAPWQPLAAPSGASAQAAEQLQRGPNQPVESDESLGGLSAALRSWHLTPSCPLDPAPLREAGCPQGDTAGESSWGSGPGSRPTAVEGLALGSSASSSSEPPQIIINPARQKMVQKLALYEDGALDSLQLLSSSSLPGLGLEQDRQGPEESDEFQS

Structure (SMILES): CSc1nc2ccc3nc(NC(=O)c4ccco4)sc3c2s1 [5E4, N-[7-(methylsulfanyl)[1,3]thiazolo[4,5-g][1,3]benzothiazol-2-yl]-2-furamide]
- ASK1 activity in kinase profiling (ASK1): 84
- Aurora B activity in kinase profiling (Aurora B): 64
- BRSK1 activity in kinase profiling (BRSK1): 86
- BRSK2 activity in kinase profiling (BRSK2): 83
- CDK9-Cyclin T1 activity in kinase profiling (CDK9-Cyclin T1): 88
- CHK1 activity in kinase profiling (CHK1): 111
- CSK activity in kinase profiling (CSK): 99
- EPH-B3 activity in kinase profiling (EPH-B3): 110
- EPH-B4 activity in kinase profiling (EPH-B4): 84
- ERK1 activity in kinase profiling (ERK1): 104
- FGF-R1 activity in kinase profiling (FGF-R1): 109
- GCK activity in kinase profiling (GCK): 24
- HIPK2 activity in kinase profiling (HIPK2): 19
- HIPK3 activity in kinase profiling (HIPK3): 50
- IRAK1 activity in kinase profiling (IRAK1): 87
- JNK1 activity in kinase profiling (JNK1): 91
- MAP4K5 activity in kinase profiling (MAP4K5): 89
- MAPKAP-K2 activity in kinase profiling (MAPKAP-K2): 92
- MINK1 activity in kinase profiling (MINK1): 8
- MKK2 activity in kinase profiling (MKK2): 121
- MLK3 activity in kinase profiling (MLK3): 18
- MST2 activity in kinase profiling (MST2): 129
- MST3 activity in kinase profiling (MST3): 99
- MST4 activity in kinase profiling (MST4): 93
- NEK6 activity in kinase profiling (NEK6): 91
- OSR1 activity in kinase profiling (OSR1): 111
- PAK2 activity in kinase profiling (PAK2): 97
- PDK1 activity in kinase profiling (PDK1): 88
- PIM1 activity in kinase profiling (PIM1): 96
- PIM3 activity in kinase profiling (PIM3): 95
- PKA activity in kinase profiling (PKA): 97
- activity at 1 µM (PKBa): 103%
- activity at 1 µM (PKBb): 121%
- RIPK2 activity in kinase profiling (RIPK2): 34
- RSK2 activity in kinase profiling (RSK2): 100
- TAK1 activity in kinase profiling (TAK1): 67
- TESK1 activity in kinase profiling (TESK1): 95
- TIE2 activity in kinase profiling (TIE2): 89
- TLK1 activity in kinase profiling (TLK1): 92
- ULK2 activity in kinase profiling (ULK2): 81
- WNK1 activity in kinase profiling (WNK1): 90
- ZAP70 activity in kinase profiling (ZAP70): 93
- p38g MAPK activity in kinase profiling (p38g MAPK): 105

Structure (SMILES): Cc1nc2ccc3sc(NC(=O)c4ccc5ncsc5c4)nc3c2s1 [3A5, N-(2-methyl[1,3]thiazolo[5,4-e][1,3]benzothiazol-7-yl)-1,3-benzothiazole-6-carboxamide]
- ASK1 activity in kinase profiling (ASK1): 59
- Aurora B activity in kinase profiling (Aurora B): 69
- BRSK1 activity in kinase profiling (BRSK1): 101
- BRSK2 activity in kinase profiling (BRSK2): 88
- CDK9-Cyclin T1 activity in kinase profiling (CDK9-Cyclin T1): 87
- CHK1 activity in kinase profiling (CHK1): 120
- CSK activity in kinase profiling (CSK): 93
- EPH-B3 activity in kinase profiling (EPH-B3): 89
- EPH-B4 activity in kinase profiling (EPH-B4): 103
- ERK1 activity in kinase profiling (ERK1): 102
- FGF-R1 activity in kinase profiling (FGF-R1): 149
- GCK activity in kinase profiling (GCK): 90
- HIPK2 activity in kinase profiling (HIPK2): 96
- HIPK3 activity in kinase profiling (HIPK3): 100
- IRAK1 activity in kinase profiling (IRAK1): 88
- JNK1 activity in kinase profiling (JNK1): 67
- MAP4K5 activity in kinase profiling (MAP4K5): 91
- MAPKAP-K2 activity in kinase profiling (MAPKAP-K2): 107
- MINK1 activity in kinase profiling (MINK1): 89
- MKK2 activity in kinase profiling (MKK2): 115
- MLK3 activity in kinase profiling (MLK3): 49
- MST2 activity in kinase profiling (MST2): 119
- MST3 activity in kinase profiling (MST3): 100
- MST4 activity in kinase profiling (MST4): 90
- NEK6 activity in kinase profiling (NEK6): 104
- OSR1 activity in kinase profiling (OSR1): 101
- PAK2 activity in kinase profiling (PAK2): 92
- PDK1 activity in kinase profiling (PDK1): 93
- PIM1 activity in kinase profiling (PIM1): 71
- PIM3 activity in kinase profiling (PIM3): 88
- PKA activity in kinase profiling (PKA): 98
- activity at 1 µM (PKBa): 123%
- activity at 1 µM (PKBb): 125%
- RIPK2 activity in kinase profiling (RIPK2): 83
- RSK2 activity in kinase profiling (RSK2): 120
- TAK1 activity in kinase profiling (TAK1): 87
- TESK1 activity in kinase profiling (TESK1): 96
- TIE2 activity in kinase profiling (TIE2): 98
- TLK1 activity in kinase profiling (TLK1): 99
- ULK2 activity in kinase profiling (ULK2): 92
- WNK1 activity in kinase profiling (WNK1): 99
- ZAP70 activity in kinase profiling (ZAP70): 109
- p38g MAPK activity in kinase profiling (p38g MAPK): 107
